“Also recorded” adds a separate entry of the source. Read-outs that look alike come from different tables or passages of the source.
What was measured:
[1] = biological target: PDGFRα (Homo sapiens, UniProt P16234); conditions: cited from earlier work
[2] = biological target: c-Kit (Homo sapiens, UniProt P10721); conditions: cited from earlier work
[3] = biological target: PDGFRβ (Homo sapiens, UniProt P09619); conditions: not specific for PDGFRβ; cited from earlier work
[4] = test system: patients with PDGFRβ hyperactivating mutations; conditions: cited from earlier work
[5] = test system: Prox1^ΔVEC mice; conditions: 50 mg/kg body weight/day oral; for aortic peak velocity: 24 weeks from 1 month of age, echocardiography, vs untreated Prox1^ΔVEC mice; for aortic peak velocity / platelet aggregate-like (thrombus-like) structures in aortic valves / abnormal elastin expression/distribution in aortic valves / aortic valve thickness (progressive thickening) / versican expression in aortic valves: 50 mg/kg/day; for platelet aggregate-like (thrombus-like) structures in aortic valves / abnormal elastin expression/distribution in aortic valves / aortic valve thickness (progressive thickening) / versican expression in aortic valves: 24 weeks; for platelet aggregate-like (thrombus-like) structures in aortic valves: Movat Pentachrome-stained sections; for abnormal elastin expression/distribution in aortic valves: downstream side of aortic valves; for aortic valve thickness (progressive thickening): histology, area of valve leaflets; for versican expression in aortic valves: immunohistochemistry; for valve defects / progression of valve disease: mice lacking Prox1 (Prox1^ΔVEC)

Chain of PDGFRα (P16234 24-1089, species assumed): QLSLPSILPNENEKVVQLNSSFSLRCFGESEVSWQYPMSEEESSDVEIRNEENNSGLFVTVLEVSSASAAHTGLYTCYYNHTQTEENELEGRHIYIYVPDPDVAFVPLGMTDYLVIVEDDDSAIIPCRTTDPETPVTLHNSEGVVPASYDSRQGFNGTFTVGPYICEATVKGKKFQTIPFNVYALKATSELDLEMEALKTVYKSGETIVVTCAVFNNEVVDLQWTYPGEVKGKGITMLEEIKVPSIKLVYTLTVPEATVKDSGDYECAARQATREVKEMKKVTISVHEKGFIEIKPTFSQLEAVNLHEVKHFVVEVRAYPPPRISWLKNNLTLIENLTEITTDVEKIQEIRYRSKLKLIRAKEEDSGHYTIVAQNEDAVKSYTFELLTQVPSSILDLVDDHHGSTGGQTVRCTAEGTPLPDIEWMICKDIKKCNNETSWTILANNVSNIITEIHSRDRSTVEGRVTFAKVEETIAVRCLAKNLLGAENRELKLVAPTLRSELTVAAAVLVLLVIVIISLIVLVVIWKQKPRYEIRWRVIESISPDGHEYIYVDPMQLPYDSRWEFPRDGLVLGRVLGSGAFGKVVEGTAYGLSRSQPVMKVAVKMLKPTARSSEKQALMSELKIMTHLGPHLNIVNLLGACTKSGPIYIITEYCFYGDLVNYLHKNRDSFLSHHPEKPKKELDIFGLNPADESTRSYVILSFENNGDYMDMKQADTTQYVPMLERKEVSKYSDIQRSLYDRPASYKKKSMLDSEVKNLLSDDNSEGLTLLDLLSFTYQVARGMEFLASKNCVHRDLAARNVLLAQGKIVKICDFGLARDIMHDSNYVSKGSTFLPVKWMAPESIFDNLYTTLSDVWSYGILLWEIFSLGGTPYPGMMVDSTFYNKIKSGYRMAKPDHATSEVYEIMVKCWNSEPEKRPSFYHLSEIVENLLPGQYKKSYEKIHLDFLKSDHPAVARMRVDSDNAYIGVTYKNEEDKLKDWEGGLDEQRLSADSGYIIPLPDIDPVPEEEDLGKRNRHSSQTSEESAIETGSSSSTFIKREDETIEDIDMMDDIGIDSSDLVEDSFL
Chain of c-Kit (P10721 26-976): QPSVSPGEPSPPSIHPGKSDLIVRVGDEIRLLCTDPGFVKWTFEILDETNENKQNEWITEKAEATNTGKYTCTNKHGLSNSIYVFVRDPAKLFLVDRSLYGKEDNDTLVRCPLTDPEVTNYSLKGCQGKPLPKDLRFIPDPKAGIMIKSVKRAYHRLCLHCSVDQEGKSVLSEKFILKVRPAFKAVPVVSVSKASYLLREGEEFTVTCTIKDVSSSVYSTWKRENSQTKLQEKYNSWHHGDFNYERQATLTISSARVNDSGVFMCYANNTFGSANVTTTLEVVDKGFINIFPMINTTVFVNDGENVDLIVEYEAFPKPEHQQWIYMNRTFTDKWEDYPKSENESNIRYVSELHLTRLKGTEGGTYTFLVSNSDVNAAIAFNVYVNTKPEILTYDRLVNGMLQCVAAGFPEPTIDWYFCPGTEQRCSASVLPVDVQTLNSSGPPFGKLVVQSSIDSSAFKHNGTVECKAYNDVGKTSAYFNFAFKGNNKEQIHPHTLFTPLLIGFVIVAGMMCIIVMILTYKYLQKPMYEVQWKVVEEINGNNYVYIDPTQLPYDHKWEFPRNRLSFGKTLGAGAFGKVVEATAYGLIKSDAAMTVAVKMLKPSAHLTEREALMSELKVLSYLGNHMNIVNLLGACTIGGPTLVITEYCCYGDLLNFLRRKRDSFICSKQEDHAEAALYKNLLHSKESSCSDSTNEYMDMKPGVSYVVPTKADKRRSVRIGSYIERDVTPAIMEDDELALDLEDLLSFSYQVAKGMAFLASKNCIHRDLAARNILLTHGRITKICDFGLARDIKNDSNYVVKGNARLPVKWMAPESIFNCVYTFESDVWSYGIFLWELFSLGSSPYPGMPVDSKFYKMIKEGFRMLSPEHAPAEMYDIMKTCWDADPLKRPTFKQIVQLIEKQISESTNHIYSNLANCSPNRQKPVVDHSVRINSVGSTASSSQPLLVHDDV
Chain of PDGFRβ (P09619 33-1106): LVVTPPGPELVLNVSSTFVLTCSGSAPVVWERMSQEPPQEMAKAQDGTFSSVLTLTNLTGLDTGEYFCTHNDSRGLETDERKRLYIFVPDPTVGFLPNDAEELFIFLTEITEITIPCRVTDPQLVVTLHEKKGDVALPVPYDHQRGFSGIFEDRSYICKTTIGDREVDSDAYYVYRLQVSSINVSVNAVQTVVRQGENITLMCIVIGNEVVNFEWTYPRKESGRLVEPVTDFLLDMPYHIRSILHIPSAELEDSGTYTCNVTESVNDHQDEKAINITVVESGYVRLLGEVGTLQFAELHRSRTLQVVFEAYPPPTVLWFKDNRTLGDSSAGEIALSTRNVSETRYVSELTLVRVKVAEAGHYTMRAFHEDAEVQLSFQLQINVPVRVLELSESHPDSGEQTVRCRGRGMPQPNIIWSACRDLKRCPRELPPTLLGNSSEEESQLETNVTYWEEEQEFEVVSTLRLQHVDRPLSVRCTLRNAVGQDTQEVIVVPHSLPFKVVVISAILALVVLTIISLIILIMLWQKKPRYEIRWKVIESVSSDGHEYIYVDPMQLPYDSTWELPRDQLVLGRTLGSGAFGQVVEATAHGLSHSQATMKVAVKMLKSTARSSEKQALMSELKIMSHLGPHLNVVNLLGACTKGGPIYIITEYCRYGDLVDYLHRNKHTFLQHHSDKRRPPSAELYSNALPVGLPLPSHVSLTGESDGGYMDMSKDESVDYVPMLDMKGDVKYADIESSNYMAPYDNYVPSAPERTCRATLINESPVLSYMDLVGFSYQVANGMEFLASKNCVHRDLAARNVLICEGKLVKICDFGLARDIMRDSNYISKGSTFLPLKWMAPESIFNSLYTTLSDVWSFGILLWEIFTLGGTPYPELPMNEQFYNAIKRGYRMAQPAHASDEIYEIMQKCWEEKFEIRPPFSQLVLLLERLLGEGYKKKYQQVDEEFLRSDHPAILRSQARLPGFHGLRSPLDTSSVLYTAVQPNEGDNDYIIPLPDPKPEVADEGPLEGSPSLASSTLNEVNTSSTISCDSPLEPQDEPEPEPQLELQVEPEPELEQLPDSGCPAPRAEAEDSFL

Cc1ccc(NC(=O)c2ccc(CN3CCN(C)CC3)cc2)cc1Nc1nccc(-c2cccnc2)n1 [imatinib]
inhibition of kinase activity [1]: inhibits the activity | inhibition of kinase activity [2]: inhibits the activity | inhibition of kinase activity [3]: inhibits the activity | connective tissue disorders [4]: ameliorated | elastin expression in mitral valves ([5]; Prox1^ΔVEC mice, 6 months): significantly normalized | expression of SOX9 in the aortic and mitral valves ([5]; Prox1^ΔVEC mice, 6 months): normalized | thickness of the mitral valves ([5]; Prox1^ΔVEC mice, 6 months): did not reduce | versican expression in mitral valves ([5]; Prox1^ΔVEC mice, 6 months): significantly normalized | aortic peak velocity ([5]; Prox1^ΔVEC mice): preventing an increase in peak velocity | aortic peak velocity ([5]; Prox1^ΔVEC mice, listed as Imb): lowered aortic peak velocity | platelet aggregate-like (thrombus-like) structures in aortic valves ([5]; Prox1^ΔVEC mice): reduced by imatinib treatment | platelet aggregate-like (thrombus-like) structures in aortic valves ([5]; Prox1^ΔVEC mice, listed as Imb): reduced | abnormal elastin expression/distribution in aortic valves ([5]; Prox1^ΔVEC mice): significantly reduced | abnormal elastin expression/distribution in aortic valves ([5]; Prox1^ΔVEC mice, listed as Imb): rescued | aortic valve thickness (progressive thickening) ([5]; Prox1^ΔVEC mice): does not ameliorate the progressive thickening | aortic valve thickness (progressive thickening) ([5]; Prox1^ΔVEC mice, listed as Imb): not reduced | versican expression in aortic valves ([5]; Prox1^ΔVEC mice): reduced the expression of versican | versican expression in aortic valves ([5]; Prox1^ΔVEC mice, listed as Imb): inhibited | valve defects / progression of valve disease ([5]; 6 months): partially rescue the valve defects; also recorded: prevents the progression of valve disease | valve defects / progression of valve disease ([5]; 6 months, listed as Imatinib): Attenuates Aortic Valve Degeneration
